In general, IC50 refers to the concentration needed to halve the response being measured.

The structures appear in SMILES notation.

We go through one compound from publication PMC7385619, “A triple action CDK4/6-PI3K-BET inhibitor with augmented cancer cell cytotoxicity” (Cell Discovery, 2020).

Experiment [1] deals with pAKT Ser473 (downstream surrogate of PI3K activity). Nature of the experiment: Immunoblotting for Akt phosphorylation. The format is cell-based, human. The conditions noted are these: Huh7, CHLA-255 and Jeko-1 cells, stimulated with 50 ng/mL IGF-1, increasing concentrations, 30 minutes. From the text: from James Bradner (Dana-Farber Cancer Institute, Boston, MA). […]
from Novartis (Basel, Switzerland). Palbociclib was obtained from LC Laboratories (Woburn, MA). Recombinant human IGF-1 was from Peprotech (Rocky Hill, NJ). Antibodies specific for […]
Cell Signaling Technology (Beverly, MA). GAPDH antibody (GT239) was from GeneTex, Inc.
Molecular models were created to design and dock molecules in silico using the software engines AutoDock Vina1 and rDock2 and the crystal structures of BRD4 (PDB ID: 4CFK), PI3K (PDB ID: 4JPS) and CDK6 (PDB ID: 5L2T).
Bromodomain and kinase assays
Inhibition of BET family members was measured using Alpha Screen assays from Reaction Biology (Malvern, PA) with His -tagged bromodomains and acetylated histone peptides as ligands. CDK and PI3K isoform activities were measured using in vitro kinase assays from Reaction Biology and ThermoFisher Scientific (Waltham, MA), respectively. KINOME scan and BROMOscan assays were performed at Eurofins DiscoverX (Fremont, CA) with data analyzed […]
Protein expression and purification
BRD4 BD1 (aa 43-180) and BD2 (aa 342 -460) were expressed in E. coli BL21 (DE3) RIL in either Luria Broth or […] minimal media supplemented with 15NH4Cl. […]
or 100 µM in triplicate the following day. […] For CCK8, absorbance was measured at 450 nm; for Alamar Blue, fluorescence signals were read as emission at 590 nm after excitation at 560 nm. […]
On the technique in general: A western blot detects proteins with antibodies after separation by electrophoresis.

In another experiment the target is T1, CDK6 (Homo sapiens, UniProt Q00534).
T1 construct: purchased Reaction Biology
Nature of the experiment: In vitro kinase assay, CDK6. In kind it is biochemical. As to conditions: Fig. 1b; italicized values from the literature (italics not visible).

For the next experiment, the target named is DNA-PK (Homo sapiens, UniProt P78527). In words: In vitro kinase assay, DNA-PK. The format is biochemical. As to conditions: Fig. 1b; italicized values from the literature (italics not visible).
Experiment [2] concerns BRD4 binding to the MYC TSS in Huh7 and Jeko-1 cells. In words: Chromatin immunoprecipitation of BRD4 at the MYC transcriptional start site. The format is cell-based, human. On the procedure:
assay for comparison relative to the no-drug control and to the time zero number of cells for assessment of growth inhibition (values between 0 and 100) and lethality (values less than 0), […]
Hepatocellular carcinoma cells (Hep3B, HepG2, and Huh7), neuroblastoma cells (CHLA-255, CHLA-136, and SMS-KNCR), mantle cell lymphoma (Granta-519, Mino, and Jeko-1), or normal tonsillar epithelial cells (RRP008) were seeded in complete medium in 96-well tissue culture plates at 2.5 x 10^3 to 1 x 10^4 cells per well, respectively. Cells were incubated overnight to allow for attachment of adherent cells. […]
or 100 µM in triplicate the following day. Cells were incubated for 48 hours at 37 °C then treated with either CCK8 reagent (Dojindo Molecular Technologies, Rockville, MD) or Alamar Blue (ThermoFisher Scientific) and incubated for 3-6 hours at 37 °C. For CCK8, absorbance was measured at 450 nm; for Alamar Blue, fluorescence signals were read as emission at 590 nm after excitation at 560 nm. Averaged values were normalized as a percentage of control and plotted and regressed for dose response using GraphPad Prism (GraphPad Software, Inc., La […]
Chromatin immunoprecipitation
Chromatin immunoprecipitation assays using antibodies against BRD4 and an isotype control and primers designed to the MYC transcriptional site and a non-regulated upstream locus were performed as previously described8. […]

T1 sequence (Q00534 whole entry): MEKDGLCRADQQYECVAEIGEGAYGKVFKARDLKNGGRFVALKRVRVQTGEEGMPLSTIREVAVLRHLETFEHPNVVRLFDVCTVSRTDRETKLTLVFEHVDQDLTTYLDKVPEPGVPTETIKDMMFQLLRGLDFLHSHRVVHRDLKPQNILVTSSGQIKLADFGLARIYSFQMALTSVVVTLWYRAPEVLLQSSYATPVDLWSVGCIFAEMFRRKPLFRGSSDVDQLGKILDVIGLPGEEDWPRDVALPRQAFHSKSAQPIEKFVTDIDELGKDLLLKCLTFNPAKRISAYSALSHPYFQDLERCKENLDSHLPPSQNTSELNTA
T1 sequence (P24385 whole entry partner): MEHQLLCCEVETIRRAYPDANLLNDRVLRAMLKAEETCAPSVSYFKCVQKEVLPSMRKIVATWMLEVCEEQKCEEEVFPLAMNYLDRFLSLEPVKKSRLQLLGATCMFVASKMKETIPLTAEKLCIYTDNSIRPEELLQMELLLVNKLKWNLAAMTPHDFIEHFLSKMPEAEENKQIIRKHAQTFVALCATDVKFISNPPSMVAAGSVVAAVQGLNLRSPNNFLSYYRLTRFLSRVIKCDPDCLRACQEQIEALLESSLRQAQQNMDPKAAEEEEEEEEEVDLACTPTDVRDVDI

Take `CN(C)C(=O)c1cc2cnc(Nc3ccc(-c4csc5c(=O)cc(N6CCOCC6)oc45)cc3)nc2n1C1CCCC1` [SRX3177]: the “levels of Akt phosphorylation” value in experiment [1] is on record as “decrease in levels”. In addition, the IC50 was found to be 3.3 nM at CDK6 and 21 nM at DNA-PK. In addition, the “occupancy of BRD4 at the transcriptional start site (TSS) of MYC by ChIP” value in experiment [2] was “abrogated binding of BRD4 to the MYC TSS”.
